In patent US11976062B2, “Benzisoxazole compound” (OSAKA UNIVERSITY, priority 2018, dated 2024):

Assays:
[1] = target: T1, TRPC6 channel (Homo sapiens, UniProt Q9Y210); experiment: Electrophysiological evaluation (whole-cell patch) using HEK293 cells transiently expressing TRPC6 channel; type: cell-based; conditions: 30 μM for 30 seconds, carbachol 100 μM, holding potential −50 mV
T1 construct: expressed in transfected cells; host or cells: HEK293
T1 sequence (Q9Y210 1-931): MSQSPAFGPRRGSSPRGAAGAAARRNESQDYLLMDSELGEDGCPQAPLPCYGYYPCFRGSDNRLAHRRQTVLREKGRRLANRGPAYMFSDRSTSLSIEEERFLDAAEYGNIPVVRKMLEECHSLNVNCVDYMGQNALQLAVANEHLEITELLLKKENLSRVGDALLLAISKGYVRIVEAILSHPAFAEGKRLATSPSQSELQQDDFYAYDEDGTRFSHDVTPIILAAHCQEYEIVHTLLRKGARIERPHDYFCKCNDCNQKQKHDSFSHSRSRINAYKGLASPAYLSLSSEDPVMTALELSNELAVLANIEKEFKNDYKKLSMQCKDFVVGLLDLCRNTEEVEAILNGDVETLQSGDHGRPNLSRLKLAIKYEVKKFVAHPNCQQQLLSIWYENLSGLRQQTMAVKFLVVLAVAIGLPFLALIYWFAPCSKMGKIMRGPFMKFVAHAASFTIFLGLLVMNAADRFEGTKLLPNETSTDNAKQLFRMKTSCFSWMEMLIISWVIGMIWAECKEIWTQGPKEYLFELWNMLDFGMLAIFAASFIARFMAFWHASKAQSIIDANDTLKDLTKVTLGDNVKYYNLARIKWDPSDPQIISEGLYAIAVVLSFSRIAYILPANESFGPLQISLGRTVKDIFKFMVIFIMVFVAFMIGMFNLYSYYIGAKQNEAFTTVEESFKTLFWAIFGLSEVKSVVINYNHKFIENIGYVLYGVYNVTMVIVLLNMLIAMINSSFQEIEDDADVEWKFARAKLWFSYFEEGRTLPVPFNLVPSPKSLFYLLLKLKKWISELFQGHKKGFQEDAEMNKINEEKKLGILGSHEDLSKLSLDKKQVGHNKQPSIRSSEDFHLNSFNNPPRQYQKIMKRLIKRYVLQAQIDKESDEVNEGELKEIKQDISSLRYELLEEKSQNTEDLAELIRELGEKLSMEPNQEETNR
Experimental: Evaluation was performed using TRPC6-expressing cells cultured in the same manner as in Test Example 1. The transfected cells were placed in a chamber set in a microscope, and TRPC6 current was measured with a patch glass electrode (5 to 10 MΩ) in whole-cell mode. The extracellular solution and intracellular solution used in this evaluation are listed below.
Extracellular Solution: 140 mM NaCl, 5 mM KCl, 1 mM CaCl2, 1.2 mM MgCl2, 10 mM Glucose, 10 mM HEPES (pH 7.4)
Intracellular Solution: 120 mM CsOH, 120 mM Aspartate, 20 mM CsCl, 2 mM MgCl2, 1.5 mM CaCl2, 5 mM EGTA, 10 mM Glucose, 10 mM HEPES, 2 mM ATP-Na, 0.1 mM GTP (pH 7.4)
The holding potential was fixed at −50 mV. TRPC current was evoked by adding carbachol (100 μM) to the cells. Evaluation was performed on the change in current caused by adding 30 μM of a test compound (compound 011) to the cells for 30 seconds after 20 seconds from the addition of carbachol.

[2] = test system: α-SMA expression induced by TGFβ1 in dermal fibroblasts; experiment: Fibrosis inhibition evaluation 1: western blotting of α-SMA in dermal fibroblasts; type: cell-based, mice; conditions: compound 011 0.1, 1, 10 μM (especially 10 μM); Pyr 2 10 μM; TGFβ1 10 ng/ml, 48 hours
Experimental: The expression of α-smooth muscle actin (α-SMA) in fibroblasts was evaluated by western blotting. Dermal fibroblasts were isolated from 1 to 3-day-old mice, and 2.5×10^5 cells were seeded in a 12-well plate. After 24 hours, the medium was replaced with a medium free of fetal bovine serum, and the cells were cultured for another 24 hours. Thereafter, 10 ng/ml of transforming growth factor β1 (TGFβ1) was added, and the cells were cultured for 48 hours. At the same time as TGFβ1 was added, a test compound (compound 011) of a predetermined concentration (0.1 μM, 1 μM, 10 μM) and 10 μM of Pyr 2 or DMSO (solvent control) were also added. […] The cultured cells were dissolved in a lysis buffer (140 mM NaCl, 20 mM Tris-HCl pH 7.8, 1% Triton-X100, 0.05% sodium deoxycholate, 0.1% SDS, 2 mM EDTA, proteinase inhibitor cocktail), and separated by SDS-PAGE, followed by detecting α-SMA using anti-α-SMA antibody (Sigma) as the primary antibody and anti-mouse IgG antibody (cell signaling) fused with horse radish peroxidase as the secondary antibody.

[3] = test system: dermal fibroblasts; experiment: Fibrosis inhibition evaluation 1: cell morphology observation of dermal fibroblasts; type: cell-based, mice; conditions: dermal fibroblasts cultured 48 hours with TGFβ1
[4] = test system: α-SMA expression induced by TGFβ1 in dermal fibroblasts; experiment: Fibrosis inhibition evaluation 2: immunofluorescent staining of α-SMA in dermal fibroblasts; type: cell-based, mice; conditions: 10 μM, TGFβ1 10 ng/ml, 48 hours, FIG. 7
Experimental: (§1) In the same manner as in Test Example 5, dermal fibroblasts were isolated from mice, and sterilized cover glass (diameter: 12 mm) was placed in a 12-well plate. On the cover glass, 2.5×10^5 cells were seeded and grown. After 24 hours, the medium was replaced with a medium free of fetal bovine serum, and the cells were cultured for another 24 hours. Separately, cardiac fibroblasts were isolated from 1 to 2-day-old rats and treated in the same manner as for the dermal fibroblasts. Thereafter, 10 ng/ml TGFβ1 was added to the dermal fibroblasts, and 2 ng/ml TGFβ2 was added to the cardiac fibroblasts, followed by culturing the cells for 48 hours. At the same time as TGFβ was added, 10 μM of a test compound (compound 011), 10 μM of Pyr 2 (conventional inhibitor), or DMSO (solvent control) was also added. Separately, cultured cells to which TGFβ-free phosphate buffered saline (PBS) was added were also prepared. […] After blocking with 1% bovine serum albumin, α-SMA was detected using anti-α-SMA antibody (Sigma) as the primary antibody and anti-mouse IgG antibody (Molecular Probes) fused with Alexa 488 as the secondary antibody, and an image was acquired using a fluorescence microscope (Keyence) with a 20× objective lens. The average fluorescence brightness (fluorescence intensity/pixel) per cell area was calculated and analyzed using Image J software.

[5] = test system: α-SMA expression induced by TGFβ2 in cardiac fibroblasts; experiment: Fibrosis inhibition evaluation 2: immunofluorescent staining of α-SMA in cardiac fibroblasts; type: cell-based, rats; conditions: 10 μM, TGFβ2 2 ng/ml, 48 hours, FIG. 8
Experimental: as §1

O=C(O)c1cnc(N2CCN(c3noc4cccc(C(F)(F)F)c34)CC2)c(Cl)c1 [Compound 011, 5-chloro-6-(4-(4-(trifluoromethyl)benzo[d]isoxazol-3-yl)piperazin-1-yl) nicotinic acid]
change in TRPC6 current evoked by carbachol [1]: significant decrease in the amount of current | expression of α-SMA induced by TGFβ1 (western blotting) [2]: potently inhibited the expression of α-SMA induced by TGFβ1 | cell morphology / cell damage by microscopic observation [3]: no change in cell morphology and no cell damage | expression of α-SMA induced by TGFβ (immunofluorescent staining) [4]: almost completely suppressed the expression of α-SMA | expression of α-SMA induced by TGFβ (immunofluorescent staining) [5]: almost completely suppressed the expression of α-SMA
